For experiment [1], the system named is bovine brain tubulin (vinca domain). The experiment is described as follows: Inhibition of [3H]vinblastine binding to tubulin (centrifugal gel filtration). To be noted: for % Inhibition of [3H]vinblastine binding by 5 μM test agent / IC50: 10 μM radiotracer, 10 μM tubulin; for % Inhibition of [3H]vinblastine binding by 5 μM test agent: 30 min room temperature; for IC50: test agent 0.5-100 μM, Hill fit. Here is the method:
(§1) The new compounds were tested for their abilities to bind at the vinca domain and at the related peptide/depsipeptide site on tubulin using a modification of a centrifugal gel filtration method described by Bai et al., Mol. Pharmacol. 7: 965-76 (1995). In the initial screens, each 0.32 mL reaction mixture contained 5 μM test agent and 10 μM [^3H]vinblastine (specific activity 8.50 Ci/mmol; GE Healthcare Bio-Sciences, Picataway, N.J.) or 10 μM [^3H]dolastatin 10 (specific activity 1.96 Ci/mmol; obtained from the Drug Synthesis and Chemistry Branch of the National Cancer Institute) predissolved in DMSO (final concentration 1% v/v) and 10 μM bovine brain tubulin, all in 0.1 M 2-(4-morpholino)ethanesulfonic acid (Mes), pH 6.9, containing 0.5 mM MgCl2. The mixture was incubated for 30 min at room temperature. Two 0.15 mL aliquots of the reaction mixture were applied to duplicate 2 mL beds of pre-swollen (in Mes, pH 6.9, containing 0.5 mM MgCl2) Sephadex G-50 (superfine) contained in Handee columns (Pierce Biotechnology, Rockford, Ill.). The columns were centrifuged at 800×g for 4 minutes and the protein concentration in the effluent was determined, using the bicinchoninic acid assay. The amount of radiolabeled ligand bound to tubulin was determined using scintillation spectrometry. Each value represents the mean ±SD of four determinations. […] Inhibition was calculated as the percent difference relative to that of the control incubation with DMSO (i.e., without test agent—assigned as 0% inhibition). […] GraphPad Prism was used to fit the resulting data to the Hill equation to determine the IC50 values.
A general note: SEC sorts molecules by how far they enter the pores of the column.

Experiment [2] deals with bovine brain tubulin (peptide/depsipeptide site). The experiment is described as follows: Inhibition of [3H]dolastatin 10 binding to tubulin (centrifugal gel filtration). Particulars: 10 μM radiotracer, 10 μM tubulin; for % Inhibition of [3H]dolastatin 10 binding by 5 μM test agent: 30 min room temperature; for IC50: test agent 0.5-100 μM, Hill fit. The method, then: as §1

The text below walks through data of patent US20100047841A1, “SYNTHESIS OF DESACETOXYTUBULYSIN H AND ANALOGS THEREOF” (University of Pittsburgh-of the Commonwealth System of …, priority 2007, published 2010).

Structures can show the parent of a compound that is named as a salt. Some results are limits rather than exact numbers.

One may read the IC50 as the concentration needed to halve the response being measured. A high value points to lower potency.

Regarding `CCC(C)[C@H](NC(=O)[C@H]1CCCCN1C)C(=O)N(C)[C@H](C[C@@H](OC(C)=O)c1nc(C(=O)N[C@@H](Cc2ccccc2)C[C@H](C)C(=O)O)cs1)C(C)C` (stereo partly drawn) [WZY-III-63C, N^14-Desacetoxytubulysin H trifluoroacetic acid salt], in experiment [1], the “ability to inhibit [3H]vinblastine binding to isolated tubulin (in words)” value is given as “equipotent to dolastatin 10”, the “% Inhibition of [3H]vinblastine binding by 5 μM test agent” value (shortened to “% Inhibition of [3H]vinblastine binding”) was found to be 50 ± 4% and the IC50 worked out at 5.6 ± 0.5 µM. In experiment [2], the “% Inhibition of [3H]dolastatin 10 binding by 5 μM test agent” value amounted to 31 ± 3% and the IC50 amounted to 10 ± 1 µM.
With `CCC(C)[C@H](NC(=O)CN(C)C)C(=O)N(C)[C@H](C[C@H](OC(C)=O)c1nc(C(=O)N[C@@H](Cc2ccccc2)C[C@H](C)C(=O)O)cs1)C(C)C` (stereo partly drawn) [WZY-III-64A, (2S,4R)-4-(2-((6S,9R,11S)-6-sec-Butyl-9-isopropyl-2,8-dimethyl-4,7,13-trioxo-12-oxa-2,5,8-triazatetradecan-11-yl)thiazole-4-carboxamido)-2-methyl-5-phenylpentanoic acid], in experiment [1], the “% Inhibition of [3H]vinblastine binding” value is reported as 2 ± 5% and the IC50 is above 50 µM. Also, the “% Inhibition of [3H]dolastatin 10 binding by 5 μM test agent” value in experiment [2] is given as −11 ± 10%.
Regarding `CCC(C)[C@H](NC(=O)CN(C)C)C(=O)N(C)[C@H](C[C@@H](OC(C)=O)c1nc(C(=O)N[C@@H](Cc2ccccc2)C[C@H](C)C(=O)O)cs1)C(C)C` (stereo partly drawn) [WZY-III-69A, (2S,4R)-4-(2-((6S,9R,11R)-6-sec-Butyl-9-iso-propyl-2,8-dimethyl-4,7,13-trioxo-12-oxa-2,5,8-triazatetradecan-11-yl)thiazole-4-carboxamido)-2-methyl-5-phenylpentanoic acid], in experiment [1], the “% Inhibition of [3H]vinblastine binding” value amounted to 43 ± 1% and the half-maximal inhibitory concentration (IC50) is 8.8 ± 1.6 µM. In experiment [2], the “% Inhibition of [3H]dolastatin 10 binding by 5 μM test agent” value is listed as 4 ± 3% and the IC50 is 64 ± 9 µM.
